The values that follow are results of earlier work, collected in US20060193883A1, “Pesticidal treatment materials” (priority 1999, published 2006).

The subject of this data set is house dust mite populations. The settings on record: in vivo.

With `CC1(C)[C@H](C(=O)O[C@H](C#N)c2cccc(Oc3ccccc3)c2)[C@@H]1C=C(Br)Br` [deltamethrin], the “effectiveness as long-term acaricides against house dust mite populations” value was “highly effective”.
For `CC1(C)C(C=C(Cl)Cl)C1C(=O)OCc1cccc(Oc2ccccc2)c1` (centres unmarked) [permethrin], the “effectiveness as long-term acaricides against house dust mite populations” value is given as “highly effective”.
